Measured values taken from US20030045563A1, “Pharmaceutical composition having reduced tendency for drug crystallization” (priority 2001, published 2003).

Assay: Test I: turbidity (apparent absorbance at 650 nm) of drug solutions with or without test polymer
Conditions: pH 7 phosphate buffer
[1] = drug 31.3 μg/ml, Dextran 65,000 0.5% w/w
[2] = drug 31.3 μg/ml, Ethylcellulose A15 0.5% w/w
[3] = drug 31.3 μg/ml, Glycerin (non-polymer) 0.5% w/w
[4] = drug 31.3 μg/ml, HPC 80,000 0.5% w/w
[5] = drug 31.3 μg/ml, HPMC E15 0.5% w/w
[6] = drug 31.3 μg/ml, Na CMC 250,000 0.5% w/w
[7] = drug 31.3 μg/ml, PEG 8,000 0.5% w/w
[8] = drug 31.3 μg/ml, PEG 20,000 0.5% w/w
[9] = drug 31.3 μg/ml, PVP 10,000 0.5% w/w
[10] = drug 31.3 μg/ml, PVP 29,000 0.5% w/w
[11] = drug 31.3 μg/ml, PVP 55,000 0.5% w/w
[12] = drug 62.5 μg/ml, Dextran 65,000 0.5% w/w
[13] = drug 62.5 μg/ml, Ethylcellulose A15 0.5% w/w
[14] = drug 62.5 μg/ml, Glycerin (non-polymer) 0.5% w/w
[15] = drug 62.5 μg/ml, HPC 80,000 0.5% w/w
[16] = drug 62.5 μg/ml, HPMC E15 0.5% w/w
[17] = drug 62.5 μg/ml, Na CMC 250,000 0.5% w/w
[18] = drug 62.5 μg/ml, PEG 8,000 0.5% w/w
[19] = drug 62.5 μg/ml, PEG 20,000 0.5% w/w
[20] = drug 62.5 μg/ml, PVP 10,000 0.5% w/w
[21] = drug 62.5 μg/ml, PVP 29,000 0.5% w/w
[22] = drug 62.5 μg/ml, PVP 55,000 0.5% w/w
[23] = drug 125 μg/ml, Dextran 65,000 0.5% w/w
[24] = drug 125 μg/ml, Ethylcellulose A15 0.5% w/w
[25] = drug 125 μg/ml, Glycerin (non-polymer) 0.5% w/w
[26] = drug 125 μg/ml, HPC 80,000 0.5% w/w
[27] = drug 125 μg/ml, HPMC E15 0.5% w/w
[28] = drug 125 μg/ml, Na CMC 250,000 0.5% w/w
[29] = drug 125 μg/ml, PEG 8,000 0.5% w/w
[30] = drug 125 μg/ml, PEG 20,000 0.5% w/w
[31] = drug 125 μg/ml, PVP 10,000 0.5% w/w
[32] = drug 125 μg/ml, PVP 29,000 0.5% w/w
[33] = drug 125 μg/ml, PVP 55,000 0.5% w/w
[34] = drug 250 μg/ml, Dextran 65,000 0.5% w/w
[35] = drug 250 μg/ml, Ethylcellulose A15 0.5% w/w
[36] = drug 250 μg/ml, Glycerin (non-polymer) 0.5% w/w
[37] = drug 250 μg/ml, HPC 80,000 0.5% w/w
[38] = drug 250 μg/ml, HPMC E15 0.5% w/w
[39] = drug 250 μg/ml, Na CMC 250,000 0.5% w/w
[40] = drug 250 μg/ml, PEG 8,000 0.5% w/w
[41] = drug 250 μg/ml, PEG 20,000 0.5% w/w
[42] = drug 250 μg/ml, PVP 10,000 0.5% w/w
[43] = drug 250 μg/ml, PVP 29,000 0.5% w/w
[44] = drug 250 μg/ml, PVP 55,000 0.5% w/w

Cc1ccc(-c2cc(C(F)(F)F)nn2-c2ccc(S(N)(=O)=O)cc2)cc1 [Celecoxib, 4-[5-(4-methylphenyl)-3-(trifluoromethyl)-1H-pyrazol-1-yl]benzenesulfonamide]
Absorbance [1]: 0.033 | Absorbance [2]: 0.041 | Absorbance [3]: 0.038 | Absorbance [4]: 0.034 | Absorbance [5]: 0.037 | Absorbance [6]: 0.046 | Absorbance [7]: 0.031 | Absorbance [8]: 0.039 | Absorbance [9]: 0.035 | Absorbance [10]: 0.031 | Absorbance [11]: 0.04 | Absorbance (drug 31.3 μg/ml, polymer None): 0.036 | Absorbance [12]: 0.076 | Absorbance [13]: 0.039 | Absorbance [14]: 0.07 | Absorbance [15]: 0.038 | Absorbance [16]: 0.039 | Absorbance [17]: 0.078 | Absorbance [18]: 0.169 | Absorbance [19]: 0.16 | Absorbance [20]: 0.041 | Absorbance [21]: 0.037 | Absorbance [22]: 0.049 | Absorbance (drug 62.5 μg/ml, polymer None): 0.069 | Absorbance [23]: 0.266 | Absorbance [24]: 0.06 | Absorbance (drug 125 μg/ml, Ethylcellulose A15 0.5% w/w, listed as celecoxib): reduced turbidity | Absorbance [25]: 0.184 | Absorbance [26]: 0.05 | Absorbance (drug 125 μg/ml, HPC 80,000 0.5% w/w, listed as celecoxib): reduced turbidity | Absorbance [27]: 0.049 | Absorbance (drug 125 μg/ml, HPMC E15 0.5% w/w, listed as celecoxib): reduced turbidity | Absorbance [28]: 0.083 | Absorbance (drug 125 μg/ml, Na CMC 250,000 0.5% w/w, listed as celecoxib): reduced turbidity | Absorbance [29]: 0.308 | Absorbance [30]: 0.342 | Absorbance [31]: 0.072 | Absorbance (drug 125 μg/ml, PVP 10,000 0.5% w/w, listed as celecoxib): reduced turbidity | Absorbance [32]: 0.064 | Absorbance (drug 125 μg/ml, PVP 29,000 0.5% w/w, listed as celecoxib): reduced turbidity | Absorbance [33]: 0.048 | Absorbance (drug 125 μg/ml, PVP 55,000 0.5% w/w, listed as celecoxib): reduced turbidity | Absorbance (drug 125 μg/ml, polymer None): 0.146 | Absorbance [34]: 0.379 | Absorbance [35]: 0.085 | Absorbance (drug 250 μg/ml, Ethylcellulose A15 0.5% w/w, listed as celecoxib): reduced turbidity | Absorbance [36]: 0.41 | Absorbance [37]: 0.11 | Absorbance (drug 250 μg/ml, HPC 80,000 0.5% w/w, listed as celecoxib): reduced turbidity | Absorbance [38]: 0.093 | Absorbance (drug 250 μg/ml, HPMC E15 0.5% w/w, listed as celecoxib): reduced turbidity | Absorbance [39]: 0.148 | Absorbance (drug 250 μg/ml, Na CMC 250,000 0.5% w/w, listed as celecoxib): reduced turbidity | Absorbance [40]: 0.485 | Absorbance [41]: 0.654 | Absorbance [42]: 0.2 | Absorbance (drug 250 μg/ml, PVP 10,000 0.5% w/w, listed as celecoxib): reduced turbidity | Absorbance [43]: 0.118 | Absorbance (drug 250 μg/ml, PVP 29,000 0.5% w/w, listed as celecoxib): reduced turbidity | Absorbance [44]: 0.105 | Absorbance (drug 250 μg/ml, PVP 55,000 0.5% w/w, listed as celecoxib): reduced turbidity | Absorbance (drug 250 μg/ml, polymer None): 0.376

Cc1onc(-c2ccccc2)c1-c1ccc(S(N)(=O)=O)cc1 [Valdecoxib, 4-[5-methyl-3-phenylisoxazol-4-yl]benzenesulfonamide]
Absorbance [1]: 0.03 | Absorbance [2]: 0.033 | Absorbance [3]: 0.03 | Absorbance [4]: 0.031 | Absorbance [5]: 0.032 | Absorbance [6]: 0.03 | Absorbance [7]: 0.03 | Absorbance [8]: 0.031 | Absorbance [9]: 0.032 | Absorbance [10]: 0.03 | Absorbance [11]: 0.032 | Absorbance (drug 31.3 μg/ml, polymer None): 0.031 | Absorbance [12]: 0.031 | Absorbance [13]: 0.033 | Absorbance [14]: 0.028 | Absorbance [15]: 0.032 | Absorbance [16]: 0.034 | Absorbance [17]: 0.036 | Absorbance [18]: 0.03 | Absorbance [19]: 0.031 | Absorbance [20]: 0.034 | Absorbance [21]: 0.03 | Absorbance [22]: 0.031 | Absorbance (drug 62.5 μg/ml, polymer None): 0.029 | Absorbance [23]: 0.033 | Absorbance [24]: 0.033 | Absorbance [25]: 0.029 | Absorbance [26]: 0.046 | Absorbance [27]: 0.034 | Absorbance [28]: 0.09 | Absorbance [29]: 0.03 | Absorbance [30]: 0.031 | Absorbance [31]: 0.032 | Absorbance [32]: 0.032 | Absorbance [33]: 0.032 | Absorbance (drug 125 μg/ml, polymer None): 0.029 | Absorbance [34]: 0.289 | Absorbance [35]: 0.052 | Absorbance (drug 250 μg/ml, Ethylcellulose A15 0.5% w/w, listed as valdecoxib): reduced turbidity | Absorbance [36]: 0.229 | Absorbance [37]: 0.093 | Absorbance (drug 250 μg/ml, HPC 80,000 0.5% w/w, listed as valdecoxib): reduced turbidity | Absorbance [38]: 0.064 | Absorbance (drug 250 μg/ml, HPMC E15 0.5% w/w, listed as valdecoxib): reduced turbidity | Absorbance [39]: 0.174 | Absorbance (drug 250 μg/ml, Na CMC 250,000 0.5% w/w, listed as valdecoxib): reduced turbidity | Absorbance [40]: 0.345 | Absorbance [41]: 0.433 | Absorbance [42]: 0.321 | Absorbance [43]: 0.183 | Absorbance (drug 250 μg/ml, PVP 29,000 0.5% w/w, listed as valdecoxib): reduced turbidity | Absorbance [44]: 0.162 | Absorbance (drug 250 μg/ml, PVP 55,000 0.5% w/w, listed as valdecoxib): reduced turbidity | Absorbance (drug 250 μg/ml, polymer None): 0.185
